Legend:
human thrombin = human thrombin (Homo sapiens, UniProt P00734); test: Inhibition of amidolytic activity of thrombin (chromogenic substrate S-2238); type: biochemical; details: human thrombin 0.5 nM final conc., S-2238, pH 7.8, room temperature
Procedure: (§1) A differential inhibition of thrombin and other serine proteases by the above compounds is desirable in order to obtain compounds having as high a specificity as possible and at the same time to avoid possible side-effects.
(§2) Specific chromogenic peptide substrates can be used to determine the inhibition of the catalytic activity of the above proteases. The inhibition of the amidolytic activity of thrombin and trypsin by the above guanidines was determined as described hereinafter.
(§3) The measurements were carried out on microtiter plates at room temperature. For this, in each well of the plate 150 μl of buffer (50 mM Tris, 100 mM NaCl, 0.1% polyethylene glycol; pH 7.8) were mixed with 50 μl of the inhibitor dissolved in DMSO and diluted in the buffer, and 25 μl of human thrombin (0.5 nM final conc.) were added. After incubation for 10 minutes, the reaction was started by the addition of chromogenic substrate S-2238 (H-D-Phe-Pip-Arg-paranitroaniline from Kabivitrum; 10 or 50 μm final conc.) and the hydrolysis of the substrate was followed spectrophotometrically on a kinetic microliter plate reader for 5 minutes. After graphical presentation of the inhibition curves, the Ki values were determined according to the method described in Biochem. J. 55, 1955, 170-171. The inhibition of trypsin was effected analogously, but using the substrate S-2251 (H-D-Val-Leu-Lys-paranitroaniline) in 200 and 750 μM final concentration.

trypsin = test: Inhibition of amidolytic activity of trypsin (chromogenic substrate S-2251); type: biochemical; details: S-2251, 200 and 750 μM final concentration, pH 7.8, room temperature
Procedure: as §1, §2, §3

[1] = Toxicity in mice upon intravenous administration; details: mouse, in vivo
Procedure: The guanidines of formula I have a low toxicity. Thus, the products of Example 8, 13a, 14i and 18f have an LD50 of 30-50mg/kg in mice upon intravenous administration.

Row | Structure (SMILES) | Ki (human thrombin) [nM] | Ki (trypsin) [nM] | LD50 [1] [mg/kg]
1 | N=C(N)N1CCC[C@@H](CNC(=O)[C@@H](Cc2c[nH]c3ccccc23)NS(=O)(=O)c2ccc(I)cc2)C1 [Example 17b, (R)-N-[(S)-1-Amidino-3-piperidinylmethyl]-α-(p-iodobenzenesulfonamido)indole-3-propionamide] | 20.7 | 6300 | –
2 | N=C(N)N1CCC[C@@H](COC(=O)[C@@H](Cc2c[nH]c3ccccc23)NS(=O)(=O)c2ccc(I)cc2)C1 [Example 17c, N-(p-Iodophenylsulfonyl)-D-tryptophan (R)-1-amidino-3-piperidinylmethyl ester] | 58 | 10000 | –
3 | N=C(N)N1CCCC(CNC(=O)[C@@H](CN2C(=O)C(=O)c3ccccc32)NS(=O)(=O)c2ccc3ccccc3c2)C1 (some centres unmarked) [Example 8] | 8.55 | 20100 | 30 to 50
4 | N=C(N)N1CCCC(CNC(=O)[C@@H](Cc2c[nH]c3ccccc23)NS(=O)(=O)c2ccccc2[N+](=O)[O-])C1 (mixture of isomers) [Example 14i, (R)-N-[(RS)-1-Amidino-3-piperidinylmethyl]-α-(o-nitrobenzenesulfonamido)indole-3-propionamide] | 25 | 38000 | 30 to 50
5 | N=C(N)N1CCC[C@@H](CNC(=O)[C@@H](Cc2ccc3ccccc3c2)NS(=O)(=O)c2ccc(I)cc2)C1 [Example 17f, (R)-N-[(S)-1-Amidino-3-piperidinylmethyl]-α-(p-iodobenzenesulfonamido)-2-naphthylpropionamide] | 41.3 | – | –
6 | N=C(N)N1CCCC(CNC(=O)[C@@H](Cc2ccccc2[N+](=O)[O-])NS(=O)(=O)c2ccc3ccccc3c2)C1 (mixture of isomers) [Example 13a, (R)-N-[(RS)-1-Amidino-3-piperidinylmethyl]-α-(2-naphthylsulfonamido)-o-nitrohydrocinnamamide] | 20.8 | 29200 | 30 to 50
7 | N=C(N)N1CCC[C@@H](CNC(=O)[C@@H](Cc2ccc([N+](=O)[O-])cc2)NS(=O)(=O)c2ccc(I)cc2)C1 [Example 17j, (R)-N-[(S)-1-Amidino-3-piperidinylmethyl]-α-(p-iodo-benzenesulfonamido)-p-nitrohydrocinnamamide] | 26.1 | 14800 | –
8 | N=C(N)N1CCCC(CNC(=O)[C@@H](Cc2ccccc2)NS(=O)(=O)c2ccc3ccccc3c2)C1 (stereo partly drawn) [Example 9, (R)-N-[(RS)-1-amidino-3-piperidinylmethyl]-α-(2-naphthylsulfonamido)hydrocinnamide] | 135 | 169000 | –
9 | N=C(N)N1CCCC(CNC(=O)[C@@H](CC(=O)c2ccccc2N)NS(=O)(=O)c2ccc3ccccc3c2)C1 (stereo partly drawn) [Example 18f, (R)-N-[(RS)-1-Amidino-3-piperidinylmethyl]-3-(o-aminobenzoyl)-2-(naphthylsulfonamido)propionamide] | 16 | – | 30 to 50
